Results from PubChem BioAssay (NCI).
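Briefly, cells in 96-well plates were exposed to five compound concentrations for 48 h, and endpoints were estimated by linear interpolation. Definition used: TGI = concentration required for complete inhibition of growth.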

Tests used:
Experiment in all cases: NCI tumour cell line growth inhibition, 48 h
SW-620 colon = tested on: SW-620 colon
HOP-18 NSCLC = tested on: HOP-18 NSCLC
XF 498 CNS = tested on: XF 498 CNS
M14 melanoma = tested on: M14 melanoma
LOX IMVI melanoma = tested on: LOX IMVI melanoma
SN12C renal = tested on: SN12C renal
OVCAR-8 ovarian = tested on: OVCAR-8 ovarian
SK-MEL-5 melanoma = tested on: SK-MEL-5 melanoma
OVCAR-3 ovarian = tested on: OVCAR-3 ovarian
U251 CNS = tested on: U251 CNS
HCC-2998 colon = tested on: HCC-2998 colon
DLD-1 colon = tested on: DLD-1 colon
A498 renal = tested on: A498 renal
SK-MEL-28 melanoma = tested on: SK-MEL-28 melanoma
HCT-116 colon = tested on: HCT-116 colon
OVCAR-4 ovarian = tested on: OVCAR-4 ovarian
IGROV1 ovarian = tested on: IGROV1 ovarian
SF-268 CNS = tested on: SF-268 CNS
SK-MEL-2 melanoma = tested on: SK-MEL-2 melanoma
A549 NSCLC = tested on: A549 NSCLC
HL-60(TB) leukemia = tested on: HL-60(TB) leukemia
HCT-15 colon = tested on: HCT-15 colon
EKVX NSCLC = tested on: EKVX NSCLC
UACC-62 melanoma = tested on: UACC-62 melanoma
SNB-19 CNS = tested on: SNB-19 CNS
LXFL 529 NSCLC = tested on: LXFL 529 NSCLC
SNB-75 CNS = tested on: SNB-75 CNS
MOLT-4 leukemia = tested on: MOLT-4 leukemia
UACC-257 melanoma = tested on: UACC-257 melanoma
DMS 273 small cell lung = tested on: DMS 273 small cell lung
UO-31 renal = tested on: UO-31 renal
HOP-62 NSCLC = tested on: HOP-62 NSCLC
COLO 205 colon = tested on: COLO 205 colon
KM12 colon = tested on: KM12 colon
SNB-78 CNS = tested on: SNB-78 CNS
RXF 393 renal = tested on: RXF 393 renal
786-0 renal = tested on: 786-0 renal
KM20L2 colon = tested on: KM20L2 colon
K-562 leukemia = tested on: K-562 leukemia
SF-295 CNS = tested on: SF-295 CNS
CAKI-1 renal = tested on: CAKI-1 renal
NCI-H460 lung = tested on: NCI-H460 lung
MALME-3M melanoma = tested on: MALME-3M melanoma
ACHN renal = tested on: ACHN renal
HOP-92 NSCLC = tested on: HOP-92 NSCLC
RXF-631 renal = tested on: RXF-631 renal
DMS 114 small cell lung = tested on: DMS 114 small cell lung
M19-MEL melanoma = tested on: M19-MEL melanoma
SR leukemia = tested on: SR leukemia
OVCAR-5 ovarian = tested on: OVCAR-5 ovarian
CCRF-CEM leukemia = tested on: CCRF-CEM leukemia
SF-539 CNS = tested on: SF-539 CNS
NCI-H23 lung = tested on: NCI-H23 lung
TK-10 renal = tested on: TK-10 renal
NCI-H226 lung = tested on: NCI-H226 lung
HT29 colon = tested on: HT29 colon
SK-OV-3 ovarian = tested on: SK-OV-3 ovarian
RPMI-8226 leukemia = tested on: RPMI-8226 leukemia
NCI-H522 lung = tested on: NCI-H522 lung

Measured: TGI

O=C(c1ccco1)c1ccccc1C(=O)c1ccco1
> 100 µM: SW-620 colon | HOP-18 NSCLC | XF 498 CNS | M14 melanoma | LOX IMVI melanoma | SN12C renal | OVCAR-8 ovarian | SK-MEL-5 melanoma | OVCAR-3 ovarian | U251 CNS | HCC-2998 colon | DLD-1 colon | A498 renal | SK-MEL-28 melanoma | HCT-116 colon | OVCAR-4 ovarian | IGROV1 ovarian | SF-268 CNS | SK-MEL-2 melanoma | A549 NSCLC | HL-60(TB) leukemia | HCT-15 colon | EKVX NSCLC | UACC-62 melanoma | SNB-19 CNS | LXFL 529 NSCLC | SNB-75 CNS | MOLT-4 leukemia | UACC-257 melanoma | DMS 273 small cell lung | UO-31 renal | HOP-62 NSCLC | COLO 205 colon | KM12 colon | SNB-78 CNS | RXF 393 renal | 786-0 renal | KM20L2 colon | K-562 leukemia | SF-295 CNS | CAKI-1 renal | NCI-H460 lung | MALME-3M melanoma | ACHN renal | HOP-92 NSCLC | RXF-631 renal | DMS 114 small cell lung | M19-MEL melanoma | SR leukemia | OVCAR-5 ovarian | CCRF-CEM leukemia | SF-539 CNS | NCI-H23 lung | TK-10 renal | NCI-H226 lung | HT29 colon

CN/C=C(/c1ccc(OC)cc1)C(O)c1ccc(OC)c(OC)c1 (stereo unspecified)
> 100 µM: SK-OV-3 ovarian | SW-620 colon | HOP-18 NSCLC | XF 498 CNS | M14 melanoma | LOX IMVI melanoma | SN12C renal | OVCAR-8 ovarian | SK-MEL-5 melanoma | RPMI-8226 leukemia | OVCAR-3 ovarian | U251 CNS | HCC-2998 colon | DLD-1 colon | A498 renal | SK-MEL-28 melanoma | HCT-116 colon | OVCAR-4 ovarian | IGROV1 ovarian | SK-MEL-2 melanoma | A549 NSCLC | HL-60(TB) leukemia | HCT-15 colon | EKVX NSCLC | UACC-62 melanoma | SNB-19 CNS | SNB-75 CNS | MOLT-4 leukemia | UACC-257 melanoma | DMS 273 small cell lung | UO-31 renal | HOP-62 NSCLC | COLO 205 colon | KM12 colon | RXF 393 renal | 786-0 renal | KM20L2 colon | K-562 leukemia | SF-295 CNS | NCI-H460 lung | MALME-3M melanoma | ACHN renal | HOP-92 NSCLC | RXF-631 renal | DMS 114 small cell lung | M19-MEL melanoma | SR leukemia | OVCAR-5 ovarian | CCRF-CEM leukemia | SF-539 CNS | NCI-H23 lung | TK-10 renal | NCI-H226 lung | NCI-H522 lung | HT29 colon
